In patent US9603364B2 (Dow AgroSciences LLC, priority 2013, dated 2017):

Key:
Experiment in all cases: General post-emergent herbicidal activity, foliar application
Assay type in all cases: in vivo
[1] = tested on: Oryza sativa L. (rice); details: Oryza sativa, 336 h, scored after 14 days, read-out: % Visual Growth Reduction ORYSA; for plant injury at 35 g/ha: 35 g ai/ha; for plant injury at 70 g/ha: 70 g ai/ha; for plant injury at 140 g/ha: 140 g ai/ha; for plant injury at 280 g/ha: 280 g ai/ha
How it was run: (§1)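 Compounds in acetone/DMSO (97:3) diluted into aqueous spray with isopropanol, Atplus 411F crop oil and Triton X-155; top rate plus 1/2×–1/16× serial rates applied to foliage, solvent blank as control. Greenhouse, sub-irrigated; visual injury versus untreated plants scored 0–100% (100 = complete kill) after 14 days.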

[2] = tested on: Zea mays L. (corn); details: 336 h, scored after 14 days, read-out: % Visual Growth Reduction ZEAMX; for plant injury at 35 g/ha: 35 g ai/ha; for plant injury at 70 g/ha: 70 g ai/ha; for plant injury at 140 g/ha: 140 g ai/ha; for plant injury at 280 g/ha: 280 g ai/ha
How it was run: as §1

[3] = tested on: Chenopodium album L. (lambsquarters, common); details: for pest or weed control at 35 g/ha / pest or weed control at 70 g/ha / pest or weed control at 140 g/ha / pest or weed control at 280 g/ha: Chenopodium album, 336 h, foliar post-emergent, scored after 14 days, read-out: % Visual Growth Reduction CHEAL; for pest or weed control at 35 g/ha: 35 g ai/ha; for pest or weed control at 70 g/ha: 70 g ai/ha; for pest or weed control at 140 g/ha: 140 g ai/ha; for pest or weed control at 280 g/ha: 280 g ai/ha; for GR80 Value CHEAL: calculated by probit analysis, dose for 80% visual injury, may be extrapolated
How it was run: (§2)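 Visual injury ratings on a scale of 0 (none) to 100% (complete kill), taken 14 days after foliar post-emergence treatment of greenhouse plants and compared with untreated plants, were fitted by probit analysis to give GR20, GR50 and GR80 doses; some GR80 values are extrapolated from the slope. Sprays contained crop oil concentrate and surfactant, with rates from the highest down to 1/16×.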

[4] = tested on: Amaranthus retroflexus L. (pigweed, redroot); details: for pest or weed control at 35 g/ha / pest or weed control at 70 g/ha / pest or weed control at 140 g/ha / pest or weed control at 280 g/ha: Amaranthus retroflexus, 336 h, foliar post-emergent, scored after 14 days, read-out: % Visual Growth Reduction AMARE; for pest or weed control at 35 g/ha: 35 g ai/ha; for pest or weed control at 70 g/ha: 70 g ai/ha; for pest or weed control at 140 g/ha: 140 g ai/ha; for pest or weed control at 280 g/ha: 280 g ai/ha; for GR80 Value AMARE: calculated by probit analysis, dose for 80% visual injury, may be extrapolated
How it was run: as §2

[5] = tested on: Euphorbia heterophylla L. (poinsettia, wild); details: for pest or weed control at 35 g/ha / pest or weed control at 70 g/ha / pest or weed control at 140 g/ha / pest or weed control at 280 g/ha: Euphorbia heterophylla, 336 h, foliar post-emergent, scored after 14 days, read-out: % Visual Growth Reduction EPHHL; for pest or weed control at 35 g/ha: 35 g ai/ha; for pest or weed control at 70 g/ha: 70 g ai/ha; for pest or weed control at 140 g/ha: 140 g ai/ha; for pest or weed control at 280 g/ha: 280 g ai/ha; for GR80 Value EPHHL: calculated by probit analysis, dose for 80% visual injury, may be extrapolated
How it was run: as §2

[6] = tested on: Viola tricolor L. (pansy); details: for pest or weed control at 35 g/ha / pest or weed control at 70 g/ha / pest or weed control at 140 g/ha / pest or weed control at 280 g/ha: Viola tricolor, 336 h, foliar post-emergent, scored after 14 days, read-out: % Visual Growth Reduction VIOTR; for pest or weed control at 35 g/ha: 35 g ai/ha; for pest or weed control at 70 g/ha: 70 g ai/ha; for pest or weed control at 140 g/ha: 140 g ai/ha; for pest or weed control at 280 g/ha: 280 g ai/ha; for GR80 Value VIOTR: calculated by probit analysis, dose for 80% visual injury, may be extrapolated
How it was run: as §2

[7] = tested on: Echinochloa crus-galli (L.) Beauv. (barnyardgrass); details: for pest or weed control at 35 g/ha / pest or weed control at 70 g/ha / pest or weed control at 140 g/ha / pest or weed control at 280 g/ha: Echinochloa crus-galli, 336 h, foliar post-emergent, scored after 14 days, read-out: % Visual Growth Reduction ECHCG; for pest or weed control at 35 g/ha: 35 g ai/ha; for pest or weed control at 70 g/ha: 70 g ai/ha; for pest or weed control at 140 g/ha: 140 g ai/ha; for pest or weed control at 280 g/ha: 280 g ai/ha; for GR80 Value ECHCG: calculated by probit analysis, dose for 80% visual injury, may be extrapolated
How it was run: as §2

[8] = tested on: Helianthus annuus L. (sunflower, common); details: for pest or weed control at 35 g/ha / pest or weed control at 70 g/ha / pest or weed control at 140 g/ha / pest or weed control at 280 g/ha: Helianthus annuus, 336 h, foliar post-emergent, scored after 14 days, read-out: % Visual Growth Reduction HELAN; for pest or weed control at 35 g/ha: 35 g ai/ha; for pest or weed control at 70 g/ha: 70 g ai/ha; for pest or weed control at 140 g/ha: 140 g ai/ha; for pest or weed control at 280 g/ha: 280 g ai/ha; for GR80 Value HELAN: calculated by probit analysis, dose for 80% visual injury, may be extrapolated
How it was run: as §2

Row | Structure (SMILES) | plant injury at 35 g/ha [1] | plant injury at 70 g/ha [1] | plant injury at 140 g/ha [1] | plant injury at 280 g/ha [1] | plant injury at 35 g/ha [2] | plant injury at 70 g/ha [2] | plant injury at 140 g/ha [2] | plant injury at 280 g/ha [2] | pest or weed control at 35 g/ha [3] | pest or weed control at 70 g/ha [3] | pest or weed control at 140 g/ha [3] | pest or weed control at 280 g/ha [3] | GR80 Value CHEAL [3] | pest or weed control at 35 g/ha [4] | pest or weed control at 70 g/ha [4] | pest or weed control at 140 g/ha [4] | pest or weed control at 280 g/ha [4] | GR80 Value AMARE [4] | pest or weed control at 35 g/ha [5] | pest or weed control at 70 g/ha [5] | further results
1 | COC(=O)c1nc(CF)c(F)c(N)c1Cl [Compound F14, Methyl 4-amino-3-chloro-5-fluoro-6-(fluoromethyl)picolinate] | 0% | 0% | 0% | 0% | 0% | 0% | 20% | 45% | 85% | 90% | 100% | 100% | 16.8 g ai/ha | 70% | 80% | 90% | 100% | 89.2 g ai/ha | 10% | 100% | pest or weed control at 140 g/ha [5]: 100%; pest or weed control at 280 g/ha [5]: 100%; GR80 Value EPHHL [5]: 53.9 g ai/ha; pest or weed control at 35 g/ha [6]: 0%; pest or weed control at 70 g/ha [6]: 0%; pest or weed control at 140 g/ha [6]: 50%; pest or weed control at 280 g/ha [6]: 60%; GR80 Value VIOTR [6]: 334 g ai/ha; pest or weed control at 35 g/ha [7]: 0%; pest or weed control at 70 g/ha [7]: 0%; pest or weed control at 140 g/ha [7]: 15%; pest or weed control at 280 g/ha [7]: 60%; GR80 Value ECHCG [7]: 411 g ai/ha; pest or weed control at 35 g/ha [8]: 85%; pest or weed control at 70 g/ha [8]: 90%; pest or weed control at 140 g/ha [8]: 95%; pest or weed control at 280 g/ha [8]: 95%; GR80 Value HELAN [8]: 18 g ai/ha
2 | COC(=O)c1nc(CF)c(Cl)c(N)c1Cl [Compound F1, Methyl 4-amino-3,5-dichloro-6-(fluoromethyl)picolinate] | 0% | 0% | 0% | 0% | 0% | 0% | 0% | 0% | 90% | 90% | 90% | 90% | 17.5 g ai/ha | 55% | 60% | 80% | 90% | 142 g ai/ha | 100% | 100% | pest or weed control at 140 g/ha [5]: 100%; pest or weed control at 280 g/ha [5]: 100%; GR80 Value EPHHL [5]: 26.2 g ai/ha; pest or weed control at 35 g/ha [6]: 0%; pest or weed control at 70 g/ha [6]: 0%; pest or weed control at 140 g/ha [6]: 10%; pest or weed control at 280 g/ha [6]: 10%; GR80 Value VIOTR [6]: >280 g ai/ha; pest or weed control at 35 g/ha [7]: 0%; pest or weed control at 70 g/ha [7]: 0%; pest or weed control at 140 g/ha [7]: 0%; pest or weed control at 280 g/ha [7]: 0%; GR80 Value ECHCG [7]: >280 g ai/ha; pest or weed control at 35 g/ha [8]: 100%; pest or weed control at 70 g/ha [8]: 100%; pest or weed control at 140 g/ha [8]: 100%; pest or weed control at 280 g/ha [8]: 100%; GR80 Value HELAN [8]: <17.5 g ai/ha
3 | COC(=O)c1nc(C(C)F)cc(N)c1Cl (centres unmarked) [Compound F19, Methyl 4-amino-3-chloro-6-(1-fluoroethyl)picolinate] | 0% | 0% | 0% | 0% | 0% | 0% | 90% | 100% | 100% | 100% | 100% | 100% | <17.5 g ai/ha | 100% | 100% | 100% | 100% | 19.1 g ai/ha | 10% | 90% | pest or weed control at 140 g/ha [5]: 100%; pest or weed control at 280 g/ha [5]: 100%; GR80 Value EPHHL [5]: 72.3 g ai/ha; pest or weed control at 35 g/ha [6]: 100%; pest or weed control at 70 g/ha [6]: 100%; pest or weed control at 140 g/ha [6]: 100%; pest or weed control at 280 g/ha [6]: 100%; GR80 Value VIOTR [6]: 34.3 g ai/ha; pest or weed control at 35 g/ha [7]: 0%; pest or weed control at 70 g/ha [7]: 0%; pest or weed control at 140 g/ha [7]: 20%; pest or weed control at 280 g/ha [7]: 25%; GR80 Value ECHCG [7]: >280 g ai/ha; pest or weed control at 35 g/ha [8]: 10%; pest or weed control at 70 g/ha [8]: 20%; pest or weed control at 140 g/ha [8]: 50%; pest or weed control at 280 g/ha [8]: 80%; GR80 Value HELAN [8]: 341 g ai/ha
4 | COC(=O)c1nc(C(C)F)c(F)c(N)c1Cl (centres unmarked) [Compound F15, Methyl 4-amino-3-chloro-5-fluoro-6-(1-fluoroethyl)picolinate] | 0% | 0% | 0% | – | 0% | 0% | 0% | – | 80% | 85% | 80% | – | 48.6 g ai/ha | 90% | 90% | 95% | – | 22.3 g ai/ha | 55% | 85% | pest or weed control at 140 g/ha [5]: 90%; GR80 Value EPHHL [5]: 75.1 g ai/ha; pest or weed control at 35 g/ha [6]: 25%; pest or weed control at 70 g/ha [6]: 45%; pest or weed control at 140 g/ha [6]: 55%; GR80 Value VIOTR [6]: >140 g ai/ha; pest or weed control at 35 g/ha [7]: 0%; pest or weed control at 70 g/ha [7]: 20%; pest or weed control at 140 g/ha [7]: 30%; GR80 Value ECHCG [7]: >140 g ai/ha; pest or weed control at 35 g/ha [8]: 80%; pest or weed control at 70 g/ha [8]: 90%; pest or weed control at 140 g/ha [8]: 100%; GR80 Value HELAN [8]: 24.4 g ai/ha
5 | C=C(F)c1cc(N)c(Cl)c(C(=O)OC)n1 [Compound F6, methyl 4-amino-3-chloro-6-(1-fluorovinyl)picolinate] | – | – | – | 0% | – | – | – | 0% | – | – | – | 90% | – | – | – | – | 40% | – | – | – | pest or weed control at 280 g/ha [5]: 60%; pest or weed control at 280 g/ha [6]: 0%; pest or weed control at 280 g/ha [7]: 0%; pest or weed control at 280 g/ha [8]: 20%
